The results in this text go back to patent US5681826A, “Saccharide composition with reduced reducibility, and preparation and uses thereof” (Kabushiki Kaisha Hayashibara Seibutsu Kagaku Kenkyujo, priority 1994, dated 1997).

Data set [1] can be described thus: Reducing power on the Somogyi-Nelson's method expressed by DE. Particulars: d.s.b. The format is physicochemical. On the procedure: The reducing powders of these novel high-purity saccharides were determined on the Somogyi-Nelson's method and expressed by DE.
Data set [2] is described as follows: Maillard reaction with glycine, absorbance at 480 nm. The data set is classed as physicochemical. Particulars: for Coloration degree (480 nm): one % glycine, 10% saccharide, pH 7.0, 100°C., 90 min, 1-cm cell. The protocol:
A solution, containing one % glycine and 10% of a saccharide preparation PI, P II, P III, P IV or P V in Experiment 4 and 50 mM phosphate buffer (pH 7.0), was kept at 100° C. for 90 min, followed by cooling the resultant solution, and determining for absorbance at a wave length of 480 nm in a 1-cm cell. As a control, maltotriose, maltotetraose, maltopentaose, maltohexaose and maltoheptaose, as a material for the saccharide preparations, were similarly treated as above, and measured for absorbance at a wave length of 480 nm.
A solution, containing one % of glycine, 10% of a high-purity trehalose preparation with a purity of 99.5%, d.s.b., obtained by the method in Experiment 17, and 50 mM phosphate buffer (pH 7.0), was kept at 100° C. for 90 min, followed by cooling the resultant solution and determining the absorbance at a wave length of 480 nm in a 1-cm cell. As a control, glucose and maltose were similarly treated as above, and the resultants were determined for absorbance at a wave length of 480 nm.

Another data set relates to glucoamylase. Put plainly: Enzymatic hydrolysis by glucoamylase. The data set is classed as biochemical. On the procedure:
Fifty mg aliquots of non-reducing saccharide preparations P I, P II, P III, P IV and P V in Experiment 4 were respectively dissolved in one ml of 50 mM acetate buffer (pH 4.5), admixed with one unit of glucoamylase commercialized by Seikagaku-Kogyo Co., Ltd., Tokyo, Japan, to effect enzymatic hydrolysis at 40° C. for 6 hours. HPLC analysis only detected glucose and trehalose in all resultant mixtures. The percentages and the molecular ratios of glucose to trehalose in each saccharide are in Table 5.

The next data set has as its system β-amylase. Description: Hydrolysis by β-amylase. The data set is classed as biochemical.
A further data set concerns α-amylase. Description: Hydrolysis by α-amylase derived from pig pancreas. Particulars: one unit, pH 6.9, 37°C., 18 hours. The data set is classed as in vitro ADME. The protocol:
(§1) The enzymatic reaction with the α-amylase was as follows: Dissolve 10 mg of a substrate in one ml of 50 mM phosphate buffer (pH 6.9), mix the resultant solution with one unit of the α-amylase, and incubate the resultant mixture at 37° C. for 18 hours. The enzymatic reaction with the α-glucosidase was conducted under the same conditions as in the case of α-amylase except that 50 mM acetate buffer (pH 4.0) was used as a buffer. The enzymatic reaction using the rat intestinal acetone powder was carried out under the same conditions as in the case of α-amylase except that 50 mM maleate buffer (pH 6.0) was used as a buffer. The saccharide compositions obtained by the α-amylase, α-glucosidase and rat intestinal acetone powder are respectively in Tables 6, 7 and 8.

In the next data set the test system is α-glucosidase. Put plainly: Hydrolysis by α-glucosidase derived from rice. The data set is classed as biochemical. Particulars: pH 4.0, 37°C., 18 hours. The protocol:
as §1

Data set [3] in a line: Hydrolysis by rat intestinal acetone powder. The data set is classed as in vitro ADME. Particulars: pH 6.0, 37°C., 18 hours. On the procedure: as §1
A short description of another data set: in vivo. Particulars: mouse, in vivo, po. An excerpt:
(§2) By using 7-week old dd-strain mice, the non-reducing saccharide preparation P I, P II, P III, P IV or P V was orally administered to the mice for acute toxicity test.

A further data set has as its system mice. Put plainly: Acute toxicity test (Experiment 8). Particulars: oral, highest possible doses.
Description: as §2

Data set [4] has as its target T1, trehalose-releasing enzyme (Rhizobium sp. M-11, UniProt Q53238).
T1 construct: M-11 culture
T1 sequence (Q53238 1-596): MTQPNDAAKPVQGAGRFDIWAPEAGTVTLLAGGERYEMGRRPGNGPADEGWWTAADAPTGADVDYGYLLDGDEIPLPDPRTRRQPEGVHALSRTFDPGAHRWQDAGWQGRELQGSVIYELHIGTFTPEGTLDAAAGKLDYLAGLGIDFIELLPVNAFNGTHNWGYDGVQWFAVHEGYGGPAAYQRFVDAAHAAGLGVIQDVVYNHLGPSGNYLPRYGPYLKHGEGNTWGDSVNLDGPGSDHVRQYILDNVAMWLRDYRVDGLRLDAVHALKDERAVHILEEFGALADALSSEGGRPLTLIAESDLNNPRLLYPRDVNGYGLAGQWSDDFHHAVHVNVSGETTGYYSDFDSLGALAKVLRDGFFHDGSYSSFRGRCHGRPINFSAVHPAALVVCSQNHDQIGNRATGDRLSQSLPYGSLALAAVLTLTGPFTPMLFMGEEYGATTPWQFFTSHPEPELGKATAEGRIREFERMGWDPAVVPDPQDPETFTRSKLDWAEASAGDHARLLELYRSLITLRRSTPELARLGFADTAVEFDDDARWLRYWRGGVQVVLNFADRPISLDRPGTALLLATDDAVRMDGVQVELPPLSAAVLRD
Description: Action of trehalose-releasing enzyme on α-glycosyltrehalose and maltooligosaccharides (Table 13). The format is biochemical. Particulars: 20% substrate, 2 units/g, 40°C., pH 7.0, 48 hours; label = substrate. The protocol:
An aqueous solution containing 20%, d.s.b., of one of the above 5 non-reducing saccharide preparations, namely α-glycosyltrehalose preparations, was prepared, followed by mixing it with 2 units/g substrate, d.s.b., of the purified trehalose-releasing enzyme obtained in Experiment 15, and subjecting the resultant to an enzymatic reaction at 40° C. and pH 7.0 for 48 hours. The resultant each reaction mixture was desalted, and analyzed for saccharide composition on HPLC using "WAKOBEADS WB-T-330 column", a column of Wako Pure Chemical Industries Ltd., Tokyo, Japan. As a control, a fresh preparation of the same trehalose-releasing enzyme was allowed to act on maltotriose, maltotetraose, maltopentaose, maltohexaose or maltoheptaose, and the resultant each reaction mixture was analyzed for saccharide composition on HPLC.

Data set [5] relates to non-reducing saccharide-forming enzyme. The data set is classed as biochemical, Rhizobium sp. M-11. Particulars: for Percentage of remaining substrate on HPLC: non-reducing saccharide-forming enzyme, 48 h, pH 7; for Percentage of newly formed product (P I to P V) on HPLC: 20 w/v % substrate, 2 units/g, 40°C., pH 7.0, 48 hours, label = substrate. The protocol: An aqueous solution containing 20 w/v % glucose, maltose, maltotriose, maltotetraose, maltopentaose, maltohexaose or maltoheptaose as a substrate was prepared, and mixed with 2 units/g substrate, d.s.b., of the purified enzyme preparation obtained in Experiment 2, and the resultant mixture was subjected to an enzymatic reaction at 40° C. and pH 7.0 for 48 hours. The reaction mixture was desalted and analyzed on high-performance liquid chromatography (HPLC) using "WAKOBEADS WB-T-330 COLUMN", a product of Wako Pure Chemical Industries Ltd., Tokyo, Japan. The HPLC procedure was conducted at ambient temperature and a flow rate of 0.5 ml/min of water as an eluent, and "RI-8012", a differential refractometer commercialized by Tosho Corporation, Tokyo, Japan, was used for analyzing reaction products.

[6] abbreviates: one unit glucoamylase, pH 4.5, 40°C., 6 hours.

Regarding `OC[C@H]1O[C@H](O[C@H]2O[C@H](CO)[C@@H](O[C@H]3O[C@H](CO)[C@@H](O[C@H]4O[C@H](CO)[C@@H](O[C@H]5O[C@H](CO)[C@@H](O[C@H]6O[C@H](CO)[C@@H](O[C@H]7O[C@H](CO)[C@@H](O)[C@H](O)[C@H]7O)[C@H](O)[C@H]6O)[C@H](O)[C@H]5O)[C@H](O)[C@H]4O)[C@H](O)[C@H]3O)[C@H](O)[C@H]2O)[C@H](O)[C@@H](O)[C@@H]1O` [P V, α-maltopentaosyltrehalose], the “DE (reducing power)” value in data set [1] is 0.23. Further, in [2], the “Coloration degree relative to corresponding material maltooligosaccharides” value is reported as 3-6% and the “Coloration degree (480 nm)” value was determined as 0.015. Also, the “Hydrolysis by glucoamylase” value in the data set on glucoamylase is “hydrolyzed into 5 glucose molecules and one trehalose molecule”. In the data set on glucoamylase (setting [6]), the Glucose is on record as 72.9%, the “Molecular ratio (Glucose/Trehalose)” value is given as 5.11 and the Trehalose turned out to be 27.1%. In addition, in the data set on β-amylase, the “Hydrolysis by β-amylase” value is 2 maltose molecules and one P I molecule. In addition, in the data set on α-amylase, the “Saccharide composition of hydrolysate by α-amylase: G1 (glucose)” value was 1.0, the “Saccharide composition of hydrolysate by α-amylase: G2 (maltose)” value turned out to be 8.6, the “Saccharide composition of hydrolysate by α-amylase: G3 (maltotriose)” value was 35.3 and the “Saccharide composition of hydrolysate by α-amylase: P I” value turned out to be 10.2. In addition, in the data set on α-amylase, the “Saccharide composition of hydrolysate by α-amylase: P II” value is reported as 44.9. Moreover, in the data set on α-glucosidase, the “Saccharide composition of hydrolysate by α-glucosidase: Glucose” value stood at 71.4%, the “Saccharide composition of hydrolysate by α-glucosidase: Other saccharides” value came out at 0.3% and the “Saccharide composition of hydrolysate by α-glucosidase: Trehalose” value was 28.3%. In [3], the “Saccharide composition of hydrolysate by rat intestinal acetone powder: Glucose” value is reported as 73.4%, the “Saccharide composition of hydrolysate by rat intestinal acetone powder: Other saccharides” value was found to be 0.1% and the “Saccharide composition of hydrolysate by rat intestinal acetone powder: Trehalose” value is recorded as 26.5%. For the same molecule, the LD50 (in general, the dose expected to kill half of the subjects tested) in “in vivo” was not below 50000 mg/kg. In addition, the Mortality result with mice is given as “no mouse died”. For the same molecule, in data set [4], the “Percentage of reducing saccharide released (glucose, maltose, maltotriose, maltotetraose or maltopentaose)” value is listed as 70.6% and the “Percentage of trehalose released” value is given as 29.1%.

For `OC[C@H]1OC(O)[C@H](O)[C@@H](O)[C@@H]1O` (some centres unmarked) [Glucose], in [5], the “Formation of saccharide from substrate” value is listed as “no saccharide is formed” and the “Percentage of remaining substrate on HPLC” value is reported as 100.0%. In addition, in data set [2], the “Coloration degree (480 nm)” value is 1.671.

Take `OC[C@H]1O[C@H](O[C@H]2[C@H](O)[C@@H](O)[C@@H](O[C@H]3[C@H](O)[C@@H](O)[C@@H](O[C@H]4[C@H](O)[C@@H](O)[C@@H](O[C@H]5[C@H](O)[C@@H](O)[C@@H](O[C@H]6[C@H](O)[C@@H](O)C(O)O[C@@H]6CO)O[C@@H]5CO)O[C@@H]4CO)O[C@@H]3CO)O[C@@H]2CO)[C@H](O)[C@@H](O)[C@@H]1O` (some centres unmarked) [Maltohexaose]: in [5], the “Percentage of newly formed product (P I to P V) on HPLC” value (“Percentage … (P I to P V) on HPLC” below) is listed as 93.5% and the “Percentage of remaining substrate on HPLC” value was 6.5%. For the same molecule, the “Coloration degree (480 nm)” value in data set [2] was 0.318.

Consider `OC[C@H]1O[C@H](O[C@H]2[C@H](O)[C@@H](O)[C@@H](O[C@H]3[C@H](O)[C@@H](O)[C@@H](O[C@H]4[C@H](O)[C@@H](O)[C@@H](O[C@H]5[C@H](O)[C@@H](O)[C@@H](O[C@H]6[C@H](O)[C@@H](O)[C@@H](O[C@H]7[C@H](O)[C@@H](O)C(O)O[C@@H]7CO)O[C@@H]6CO)O[C@@H]5CO)O[C@@H]4CO)O[C@@H]3CO)O[C@@H]2CO)[C@H](O)[C@@H](O)[C@@H]1O` (some centres unmarked) [Maltoheptaose], for which, in [5], the “Percentage … (P I to P V) on HPLC” value was 93.4% and the “Percentage of remaining substrate on HPLC” value stood at 6.7%. In addition, in [2], the “Coloration degree (480 nm)” value stood at 0.271.

With `OC[C@H]1O[C@H](O[C@H]2[C@H](O)[C@@H](O)[C@@H](O[C@H]3[C@H](O)[C@@H](O)[C@@H](O[C@H]4[C@H](O)[C@@H](O)[C@@H](O[C@H]5[C@H](O)[C@@H](O)C(O)O[C@@H]5CO)O[C@@H]4CO)O[C@@H]3CO)O[C@@H]2CO)[C@H](O)[C@@H](O)[C@@H]1O` (some centres unmarked) [Maltopentaose], in data set [5], the “Percentage … (P I to P V) on HPLC” value is 92.7% and the “Percentage of remaining substrate on HPLC” value amounted to 7.3%. The “Coloration degree (480 nm)” value in [2] came out at 0.369.

With `OC[C@H]1O[C@H](O[C@H]2[C@H](O)[C@@H](O)[C@@H](O[C@H]3[C@H](O)[C@@H](O)C(O)O[C@@H]3CO)O[C@@H]2CO)[C@H](O)[C@@H](O)[C@@H]1O` (some centres unmarked) [Maltotriose], in [5], the “Percentage … (P I to P V) on HPLC” value was 35.0% and the “Percentage of remaining substrate on HPLC” value was determined as 65.0%. For the same molecule, in data set [2], the “Coloration degree (480 nm)” value amounted to 0.623.

As to `OC[C@H]1O[C@H](O[C@H]2[C@H](O)[C@@H](O)C(O)O[C@@H]2CO)[C@H](O)[C@@H](O)[C@@H]1O` (mixture of isomers) [Maltose], in [5], the “Formation of saccharide from substrate” value is recorded as “no saccharide is formed” and the “Percentage of remaining substrate on HPLC” value was 100.0%. In addition, the “Coloration degree (480 nm)” value in data set [2] is listed as 0.926.

As for `OC[C@H]1O[C@H](O[C@H]2[C@H](O)[C@@H](O)[C@@H](O[C@H]3[C@H](O)[C@@H](O)[C@@H](O[C@H]4[C@H](O)[C@@H](O)C(O)O[C@@H]4CO)O[C@@H]3CO)O[C@@H]2CO)[C@H](O)[C@@H](O)[C@@H]1O` (some centres unmarked) [Maltotetraose], in [5], the “Percentage … (P I to P V) on HPLC” value stood at 85.6% and the “Percentage of remaining substrate on HPLC” value is reported as 14.4%. Further, the “Coloration degree (480 nm)” value in data set [2] was found to be 0.475.
